Test results from patent US20240270821A1, “GIP/GLP1/GCG TRI-RECEPTOR AGONISTS AND USES THEREOF” (priority 2023, published 2024).
Starred links: 1 amine or outer side, 2 acyl side, 3 side chain; linkers in the order of their positions; H or OH if unused. Non-standard residues stand in square brackets, D forms with d. Residues, ends and D or L forms follow the SMILES beside them. Groups on a side chain read outwards from the residue. *: point of attachment. C18 diacid = O=C(O)CCCCCCCCCCCCCCCCC(=O)*; αMePhe(2-F) = C[C@](N)(Cc1ccccc1F)C(=O)O; γGlu = O=C(O)[C@H](CCC(=O)[*:2])N[*:1]; αMeY = C[C@](N)(Cc1ccc(O)cc1)C(=O)O; 4Pal = N[C@@H](Cc1ccncc1)C(=O)O; αMeL = CC(C)C[C@](C)(N)C(=O)O; αMeS = C[C@](N)(CO)C(=O)O; Orn = NCCC[C@H](N)C(=O)O; Aib = CC(C)(N)C(=O)O

Experiments:
Assay type in all cases: cell-based
[1] = target: human GcgR (Homo sapiens, UniProt P47871); assay: Functional cAMP activity in the presence of 1% HSA; details: read-out: cAMP Rel EC50, hGcgR
[2] = target: T1, hGIPR (Homo sapiens, UniProt P48546); assay: Functional cAMP activity in the presence of 1% HSA; details: read-out: cAMP Rel EC50, hGIPR
T1 sequence (P48546 22-466): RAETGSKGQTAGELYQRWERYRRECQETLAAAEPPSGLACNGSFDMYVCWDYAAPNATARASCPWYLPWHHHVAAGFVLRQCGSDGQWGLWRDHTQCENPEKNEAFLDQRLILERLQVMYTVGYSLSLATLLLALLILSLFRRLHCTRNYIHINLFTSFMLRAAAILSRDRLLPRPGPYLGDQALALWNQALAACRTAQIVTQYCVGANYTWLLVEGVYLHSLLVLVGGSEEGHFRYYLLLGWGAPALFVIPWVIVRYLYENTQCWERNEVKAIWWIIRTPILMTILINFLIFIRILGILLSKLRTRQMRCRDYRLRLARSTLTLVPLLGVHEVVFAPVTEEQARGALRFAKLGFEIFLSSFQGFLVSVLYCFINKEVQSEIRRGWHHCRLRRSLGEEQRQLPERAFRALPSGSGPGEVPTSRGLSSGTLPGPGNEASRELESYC

[3] = target: T2, hGLP-1R (Homo sapiens, UniProt P43220); assay: Functional cAMP activation in the presence of 0.1% casein (no HSA); details: read-out: Relative cAMP EC50, hGLP-1R;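 also: intracellular cAMP rise after 30 min at 37 °C read by HTRF, normalized between buffer only (0%) and maximal control ligand (100%), four-parameter variable-slope fit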
[4] = target: T2, hGLP-1R; assay: Functional cAMP activity in the presence of 1% HSA; details: read-out: cAMP Rel EC50, hGLP-1R
[5] = target: T1, hGIPR; assay: Functional cAMP activation in the presence of 0.1% casein (no HSA); details: read-out: Relative cAMP EC50, hGIPR;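 as to Relative cAMP EC50, hGIPR: intracellular cAMP rise after 30 min at 37 °C read by HTRF against a standard curve, scaled between buffer alone (0%) and top control ligand concentration (100%), four-parameter fit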;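 as to Relative cAMP EC50, hGcgR: intracellular cAMP rise after 30 min at 37 °C, read by HTRF against a cAMP standard curve, scaled from buffer only (0%) to maximal control ligand response (100%)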
[6] = target: hGcgR (Homo sapiens, UniProt P47871); assay: as above; details: read-out: Relative cAMP EC50, hGcgR;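 also: intracellular cAMP rise after 30 min at 37 °C, read by HTRF against a cAMP standard curve, scaled from buffer only (0%) to maximal control ligand response (100%)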
hGcgR, sequence (P47871 26-477): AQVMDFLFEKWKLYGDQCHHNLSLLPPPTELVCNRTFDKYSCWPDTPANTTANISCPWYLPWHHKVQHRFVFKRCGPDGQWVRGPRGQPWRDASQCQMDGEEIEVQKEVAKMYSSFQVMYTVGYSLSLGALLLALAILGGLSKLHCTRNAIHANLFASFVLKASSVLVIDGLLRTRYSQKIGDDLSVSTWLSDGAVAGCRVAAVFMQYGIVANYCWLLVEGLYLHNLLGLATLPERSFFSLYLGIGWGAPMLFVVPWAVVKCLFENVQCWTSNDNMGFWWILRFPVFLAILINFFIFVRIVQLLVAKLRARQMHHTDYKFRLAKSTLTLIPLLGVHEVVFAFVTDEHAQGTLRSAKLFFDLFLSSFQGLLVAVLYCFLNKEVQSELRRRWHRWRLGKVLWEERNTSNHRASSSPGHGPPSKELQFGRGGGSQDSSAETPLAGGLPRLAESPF

T2 sequence (P43220 24-463): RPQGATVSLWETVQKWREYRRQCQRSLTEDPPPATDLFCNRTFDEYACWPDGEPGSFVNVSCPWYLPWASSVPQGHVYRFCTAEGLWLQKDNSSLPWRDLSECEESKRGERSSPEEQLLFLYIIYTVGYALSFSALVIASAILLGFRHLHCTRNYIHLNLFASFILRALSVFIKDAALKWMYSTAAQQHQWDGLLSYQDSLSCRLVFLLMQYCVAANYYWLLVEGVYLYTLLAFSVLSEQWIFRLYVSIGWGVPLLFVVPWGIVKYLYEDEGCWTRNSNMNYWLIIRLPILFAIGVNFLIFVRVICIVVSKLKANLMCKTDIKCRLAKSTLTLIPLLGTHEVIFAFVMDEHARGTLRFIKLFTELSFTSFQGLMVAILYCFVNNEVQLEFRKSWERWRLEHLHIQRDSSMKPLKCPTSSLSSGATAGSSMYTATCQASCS
human GcgR, sequence (P47871 26-477): as the sequence (P47871 26-477) above

Row | Compound | EC50 [1] | EC50 [2] | EC50 [3] | EC50 [4] | EC50 [5] | EC50 [6]
1 | CC[C@H](C)[C@H](NC(=O)[C@H](Cc1ccccc1)NC(=O)[C@H](C)NC(=O)C(C)(C)NC(=O)[C@H](CCC(N)=O)NC(=O)[C@H](C)NC(=O)[C@H](CCCCNC(=O)COCCOCCNC(=O)CC[C@H](NC(=O)CCCCCCCCCCCCCCCCC(=O)O)C(=O)O)NC(=O)[C@H](CCCCN)NC(=O)[C@H](CC(=O)O)NC(=O)[C@H](CC(C)C)NC(=O)[C@](C)(CC(C)C)NC(=O)[C@@H](NC(=O)[C@H](CO)NC(=O)[C@H](Cc1ccc(O)cc1)NC(=O)[C@H](CC(=O)O)NC(=O)[C@H](CO)NC(=O)[C@@H](NC(=O)[C@](C)(Cc1ccccc1F)NC(=O)[C@@H](NC(=O)CNC(=O)[C@H](CCC(N)=O)NC(=O)C(C)(C)NC(=O)[C@@H](N)Cc1ccc(O)cc1)[C@@H](C)O)[C@@H](C)O)[C@@H](C)CC)C(=O)N[C@@H](CCC(=O)O)C(=O)N[C@@H](Cc1ccc(O)cc1)C(=O)N[C@@H](CC(C)C)C(=O)N[C@@H](CCC(=O)O)C(=O)N[C@@H](CCC(=O)O)C(=O)NCC(=O)NCC(=O)N1CCC[C@H]1C(=O)N[C@@H](CO)C(=O)N[C@@H](CO)C(=O)NCC(=O)N[C@@H](C)C(=O)N1CCC[C@H]1C(=O)N1CCC[C@H]1C(=O)N1CCC[C@H]1C(=O)N[C@@H](CO)C(=O)N[C@@H](CCC(=O)O)C(=O)NCC(N)=O [Example 431] | 352 nM | 3.73 nM | 0.392 nM | 35.2 nM | 0.0157 nM | 3.32 nM
2 | CC[C@H](C)[C@H](NC(=O)[C@H](Cc1ccccc1)NC(=O)[C@H](C)NC(=O)C(C)(C)NC(=O)[C@H](CCC(N)=O)NC(=O)[C@H](C)NC(=O)[C@H](CCCCNC(=O)CC[C@H](NC(=O)CC[C@H](NC(=O)CCCCCCCCCCCCCCCCC(=O)O)C(=O)O)C(=O)O)NC(=O)[C@H](CCCCN)NC(=O)[C@H](CC(=O)O)NC(=O)[C@H](CC(C)C)NC(=O)[C@H](CC(C)C)NC(=O)[C@@H](NC(=O)[C@H](CO)NC(=O)[C@H](Cc1ccc(O)cc1)NC(=O)[C@H](CC(=O)O)NC(=O)[C@H](CO)NC(=O)[C@@H](NC(=O)[C@](C)(Cc1ccccc1F)NC(=O)[C@@H](NC(=O)CNC(=O)[C@H](CCC(N)=O)NC(=O)C(C)(C)NC(=O)[C@@H](N)Cc1ccc(O)cc1)[C@@H](C)O)[C@@H](C)O)[C@@H](C)CC)C(=O)N[C@@H](CCC(=O)O)C(=O)N[C@@H](Cc1ccc(O)cc1)C(=O)N[C@@H](CC(C)C)C(=O)N[C@@H](CCC(=O)O)C(=O)N[C@@H](CCC(=O)O)C(=O)NCC(=O)NCC(=O)N1CCC[C@H]1C(=O)N[C@@H](CO)C(=O)N[C@@H](CO)C(=O)NCC(=O)N[C@@H](C)C(=O)N1CCC[C@H]1C(=O)N1CCC[C@H]1C(=O)N1CCC[C@H]1C(=O)N[C@@H](CO)C(=O)N[C@@H](CCC(=O)O)C(N)=O [Example 433] (H-Y[Aib]QGT[αMePhe(2-F)]TSDYSILLDKK([γGlu-γGlu-C18 diacid])AQ[Aib]AFIEYLEEGGPSSGAPPPSE-NH2; N-terminus assumed) | 532 nM | 15.3 nM | 0.273 nM | 43.4 nM | 0.0206 nM | 5.78 nM
3 | CC[C@H](C)[C@H](NC(=O)[C@H](CC(C)C)NC(=O)[C@](C)(Cc1ccc(O)cc1)NC(=O)[C@@H](CCC(=O)O)NC(=O)[C@@H](NC(=O)[C@H](Cc1ccccc1)NC(=O)[C@H](CO)NC(=O)C(C)(C)NC(=O)[C@H](CCC(N)=O)NC(=O)[C@H](C)NC(=O)[C@H](CCCCNC(=O)CC[C@H](NC(=O)CC[C@H](NC(=O)CCCCCCCCCCCCCCCCC(=O)O)C(=O)O)C(=O)O)NC(=O)[C@H](CCCN)NC(=O)[C@H](CC(=O)O)NC(=O)[C@H](CC(C)C)NC(=O)[C@](C)(CC(C)C)NC(=O)[C@@H](NC(=O)[C@](C)(CO)NC(=O)[C@H](Cc1ccncc1)NC(=O)[C@H](CC(=O)O)NC(=O)[C@H](CO)NC(=O)[C@@H](NC(=O)[C@](C)(Cc1ccccc1F)NC(=O)[C@@H](NC(=O)CNC(=O)[C@H](CCC(N)=O)NC(=O)C(C)(C)NC(=O)[C@@H](N)Cc1ccc(O)cc1)[C@@H](C)O)[C@@H](C)O)[C@@H](C)CC)[C@@H](C)CC)C(=O)N[C@@H](CCC(=O)O)C(=O)NCC(=O)NCC(=O)N1CCC[C@H]1C(=O)N[C@@H](CO)C(=O)N[C@@H](CO)C(=O)NCC(=O)N[C@@H](CCC(=O)O)C(=O)N1CCC[C@H]1C(=O)N1CCC[C@H]1C(=O)N1CCC[C@H]1C(=O)N[C@@H](CCC(=O)O)C(N)=O [Example 436] (H-Y[Aib]QGT[αMePhe(2-F)]TSD[4Pal][αMeS]I[αMeL]LD[Orn]K([γGlu-γGlu-C18 diacid])AQ[Aib]SFI[dE][αMeY]LIEGGPSSGEPPPE-NH2; N-terminus assumed) | 182 nM | 1.18 nM | 0.173 nM | 11.7 nM | 0.0294 nM | 2.27 nM
4 | CC[C@H](C)[C@H](NC(=O)[C@H](Cc1ccccc1)NC(=O)[C@H](CCCN)NC(=O)C(C)(C)NC(=O)[C@H](CCC(N)=O)NC(=O)[C@H](C)NC(=O)[C@H](CCCCNC(=O)CC[C@H](NC(=O)CC[C@H](NC(=O)CCCCCCCCCCCCCCCCC(=O)O)C(=O)O)C(=O)O)NC(=O)[C@H](CCCN)NC(=O)[C@H](CC(=O)O)NC(=O)[C@H](CC(C)C)NC(=O)[C@](C)(CC(C)C)NC(=O)[C@@H](NC(=O)[C@](C)(CO)NC(=O)[C@H](Cc1ccncc1)NC(=O)[C@H](CC(=O)O)NC(=O)[C@H](CO)NC(=O)[C@@H](NC(=O)[C@](C)(Cc1ccccc1F)NC(=O)[C@@H](NC(=O)CNC(=O)[C@H](CCC(N)=O)NC(=O)C(C)(C)NC(=O)[C@@H](N)Cc1ccc(O)cc1)[C@@H](C)O)[C@@H](C)O)[C@@H](C)CC)C(=O)N[C@H](CCC(=O)O)C(=O)N[C@@](C)(Cc1ccc(O)cc1)C(=O)N[C@@H](CC(C)C)C(=O)N[C@@H](C)C(=O)N[C@@H](CCC(=O)O)C(=O)NCC(=O)NCC(=O)N1CCC[C@H]1C(=O)N[C@@H](CO)C(=O)N[C@@H](CO)C(=O)NCC(=O)N[C@@H](CCC(=O)O)C(=O)N1CCC[C@H]1C(=O)N1CCC[C@H]1C(=O)N1CCC[C@H]1C(=O)N[C@@H](CCC(=O)O)C(N)=O [Example 437] (H-Y[Aib]QGT[αMePhe(2-F)]TSD[4Pal][αMeS]I[αMeL]LD[Orn]K([γGlu-γGlu-C18 diacid])AQ[Aib][Orn]FI[dE][αMeY]LAEGGPSSGEPPPE-NH2) | 188 nM | 16.9 nM | 0.421 nM | 26.9 nM | 0.0872 nM | 1.76 nM
5 | CC[C@H](C)[C@H](NC(=O)[C@H](Cc1ccccc1)NC(=O)[C@H](CCCN)NC(=O)C(C)(C)NC(=O)[C@H](CCC(N)=O)NC(=O)[C@H](C)NC(=O)[C@H](CCCCNC(=O)CC[C@H](NC(=O)CC[C@H](NC(=O)CCCCCCCCCCCCCCCCC(=O)O)C(=O)O)C(=O)O)NC(=O)[C@H](CCCN)NC(=O)[C@H](CC(=O)O)NC(=O)[C@H](CC(C)C)NC(=O)[C@](C)(CC(C)C)NC(=O)[C@@H](NC(=O)[C@](C)(CO)NC(=O)[C@H](Cc1ccncc1)NC(=O)[C@H](CC(=O)O)NC(=O)[C@H](CO)NC(=O)[C@@H](NC(=O)[C@](C)(Cc1ccccc1F)NC(=O)[C@@H](NC(=O)CNC(=O)[C@H](CCC(N)=O)NC(=O)C(C)(C)NC(=O)[C@@H](N)Cc1ccc(O)cc1)[C@@H](C)O)[C@@H](C)O)[C@@H](C)CC)C(=O)N[C@H](CCC(=O)O)C(=O)N[C@@](C)(Cc1ccc(O)cc1)C(=O)N[C@@H](CC(C)C)C(=O)N[C@@H](CO)C(=O)N[C@@H](CCC(=O)O)C(=O)NCC(=O)NCC(=O)N1CCC[C@H]1C(=O)N[C@@H](CO)C(=O)N[C@@H](CO)C(=O)NCC(=O)N[C@@H](CCC(=O)O)C(=O)N1CCC[C@H]1C(=O)N1CCC[C@H]1C(=O)N1CCC[C@H]1C(=O)N[C@@H](CCC(=O)O)C(N)=O [Example 438] (H-Y[Aib]QGT[αMePhe(2-F)]TSD[4Pal][αMeS]I[αMeL]LD[Orn]K([γGlu-γGlu-C18 diacid])AQ[Aib][Orn]FI[dE][αMeY]LSEGGPSSGEPPPE-NH2) | 431 nM | 53.8 nM | 0.815 nM | 41.1 nM | 0.225 nM | 3.62 nM
